From patent US20070225213A1, “Nucleic acid carriers for delivery of therapeutic agents” (priority 2006, published 2007)
Where “and” joins values, the source holds several entries; their conditions need not be identical. Equal values may be shown once.

Columns and labels:
human MCF-7 cells = experiment: Visually scored toxicity of NAC-MTN / NAC-DOX at fixed loading (Example 3); format: cell-based; settings: 5.1% drug loading, 16 hour incubation
Description: Toxicity of NAC-MTN or NAC-DOX, at 50, 16.9, 5.6, and 1.9 ug/ml final drug concentration and 5.1 % drug loading in human MCF-7 cells. Sample A: 15 mg of HSDNA (EX031804A) was combined with 0.76 mg MTN(mw 517.4) or (sample B) 0.76 mg DOX (mw 579.99) to give 152 ug/ml final drug and 5.1% loading in 5 ml final vol. Samples C, D were MTN, or DOX only controls at equivalent final [drug] without HSDNA. Sample E was HSDNA, no drug and sample F was H2O only. MCF-7 cells were trypsinized and plated out previously. Triplicate samples were diluted 0.1 ml in 0.2 ml 1× media to give 3× fold serial dilution in 0.2 ml final. After 16 hour incubation the cells were visually inspected for signs of toxicity. Toxicity was scored as the following: 50%=one half all cells rounded, un-adhered or crenated.

MCF7 cells = experiment: Drug loading vs toxicity at fixed [drug], MTT viability assay (Example 4); format: cell-based, human; settings: Drug only, without carrier; 0.103 mM DOX; 72 hours
Description: FIG. 1. […] NAC-MTN or NAC-DOX were prepared at different weight:weight % of drug:nucleic acid and incubated in cells. For each sample and corresponding % loading, the total drug was held constant at 0.058 mM MTN or 0.1 mM DOX. After incubation in cells, cell viability was assayed via mitochondrial dehydrogenase activity against 3-[4,5-dimethylthiazol-2-yl]-2,5-diphenyl tetrazolium bromide (MTT) and reported as % toxicity relative to untreated cells.
Mitoxantrone (MTN, Sigma Aldrich) and Doxorubicin HCl (DOX) were diluted in HBSS to 1 mg/ml final. DNA, from degraded herring sperm DNA <40 bp (HSDNA, Sigma Aldrich), was prepared in water at 10 mg/ml. The drug was diluted in water or HBSS first, followed by addition of the DNA, in order to prevent precipitation. Precipitation of drug was especially a concern at 40% loading of MTN, which is the loading limit for HSDNA (degraded) and so the DNA is added slowly to the diluted MTN (the reverse addition leads to precipitation). All NAC-MTN formulation stocks were prepared at 0.15 mg/ml final MTN, and different concentration of DNA in order to give 15, 25, and 35.7% final drug loading w/w % of MTN/DNA in 0.5 ml final volume. All NAC-DOX formulations were prepared at 0.3 mg/ml final DOX, and either 5, 10, or 15% loaded drug weight/weight % of DOX/DNA in 0.5 ml final volume. […]

[1] = Stability of NAC-DOX complex in hank's buffered saline (HBSS) at pH 7; format: physicochemical
Description: The NAC-DOX complex was tested for stability in hank's buffered saline (HBSS) at pH 7.

[2] = after 5 days; cited from earlier work
[3] = Paclitaxel solubilization by NAC, turbidity OD410 (Example 8); format: physicochemical; settings: formulation with a nucleic acid
Description: Solubility enhancement of paclitaxel by NAC. Aqueous paclitaxel solutions were prepared with or without DNA, sonicated, stored at room temperature for several hours, and then centrifuged. The pellets were resuspended in 50% ethanol and the precipitated paclitaxel was quantified using a standard absorbance curve at 230 nm. The total percentage of solubilized paclitaxel was calculated using %=100× (1-assy mM)/expected mM.
Materials: Paclitaxel 10.0 mg/ml (0.0118M, m.w. 853.92) in 80% ETOH. HSDNA (herring sperm degraded DNA 428A, Sigma-Aldrich) 10 mg/ml pH7 HSGDNA (genomic, Promega mw range 100 bp-3000 bp) 10 mg/ml. […] 1M potassium phosphate buffer pH5.
Aqueous paclitaxel solutions were prepared by combining 10 ul (0.01 ml) of paclitaxel stock (11.8 mM) with 2.0 ml H2O containing water only, HSGDNA, HSDNA, RNA, or HSDNA/pPEGPEI2K as indicated in the table. Samples were sonicated 3 min. with Branson Sonifier 450 @40% duty, at #3 output level. In 10 mM potassium phosphate pH5.
Let solutions stand 30 min, and read turbidity of 0.3 ml at A410 on the Synergy HT1. Samples were 10 min @2500 rpm on Beckman Allegra21R. The pellet was resuspended in 1.5 ml of 50% ETOH and OD230 nm was taken of a 0.3 ml sample in a Falcon UV clear plate on Synergy HT1. Prepared paclitaxel standard curve, 10 ul of 9.81 mM in 1 ml 50% ETOH was diluted 2×, serially in 5 vials at 0.5 ml final vol. […]

[4] = physiological conditions; cited from earlier work
[5] = Dipyridamole precipitation assay, supernatant absorbance A410 (Example 6); format: physicochemical
Description: Similar results were obtained for dipyridamole (DPA). Dipyridamole is a coronary vasodilator and functions primarily to reduce platelet adhesion and aggregation. […] Dipyridamole for intravenous injection is given as a sodium chloride or dextrose injection with 5 mg of DPA, 50 mg PEG600, 2 mg tartaric acid, and water at pH 2.7. Dipyridamole is readily soluble in acidic solution, however at higher pH it can precipitate. […] Furthermore, the nucleic acid targeting of dipyridamole can provide unexpected therapeutic benefits by enhancing its accumulation in specific areas of the body.
Dipyridamole (DPA, m.w. 504.6) was prepared as 10.27 mM […] solution in water acidified with HCl. DNA was from HSDNA 428A) 10 mg/ml in H2O prev. heated to 80C.
Prepared samples 1-3 by combining 25 ul of DPA and 0.2 ml DNA to give a turbid solution. Added 7 ul of 1M HCl to clarify, followed by 0.1 ml of 1M potassium phosphate buffer (KP) pH7. Repeated for samples 4-6 and replace DNA with water. […] Read absorbance of 0.3 ml supernatant at A410. Higher values corresponded to more drug solubilized.

Compound	Toxicity (visual score) (human MCF-7 cells; 17 ug/ml final drug)	Toxicity (visual score) (human MCF-7 cells; 5.6 ug/ml final drug)	Toxicity (visual score) (human MCF-7 cells; 50 ug/ml final drug)	Toxicity (visual score) (human MCF-7 cells; 1 .9 ug/ml final drug)	also measured
COc1cccc2c1C(=O)c1c(O)c3c(c(O)c1C2=O)C[C@@](O)(C(=O)CO)C[C@@H]3O[C@H]1C[C@H](N)[C@H](O)[C@H](C)O1 [DOX, doxorubicin]	80-90%	–	–	–	% Tox (MCF7 cells): 67%; stability in hank's buffered saline (HBSS) at pH 7 [1]: became unstable at pH 7; administered drug recovered in urine [2]: 4-5%
CC(=O)O[C@H]1C(=O)[C@@]2(C)[C@H]([C@H](OC(=O)c3ccccc3)[C@]3(O)C[C@H](OC(=O)[C@H](O)[C@@H](NC(=O)c4ccccc4)c4ccccc4)C(C)=C1C3(C)C)[C@]1(OC(C)=O)CO[C@@H]1C[C@@H]2O [paclitaxel]	–	–	–	–	enhancement of solubility of paclitaxel compared with water alone [3]: ≤ 200%
Mylotarg: mAB-calcheamicin conjugate with hydrazone linker	–	–	–	–	drug existing in free form [4]: approximately 50%
COc1cccc2c1C(=O)c1c(O)c3c(c(O)c1C2=O)C[C@@](O)(C(=O)CO)C[C@@H]3O[C@H]1C[C@H](N)[C@H](O)[C@H](C)O1 [Sample D, doxorubicin]	80%	20%	100%	10%	–
O=C1c2c(O)ccc(O)c2C(=O)c2c(NCCNCCO)ccc(NCCNCCO)c21 [C, mitoxantrone]	100%	90%	100%	20%	–
OCCN(CCO)c1nc(N2CCCCC2)c2nc(N(CCO)CCO)nc(N3CCCCC3)c2n1 [DPA, dipyridamole]	–	–	–	–	stability against precipitation ([5]; formulated with the nucleic acid carrier, aqueous solutions at pH 7): stabilized dipyridamole against precipitation; A410 of supernatant ([5]; potassium phosphate buffer pH7, 16 hours, higher = more drug solubilized, replicate samples): 0.388 and 0.396 and 0.401
